According to patent publication US11667621B2, “Antiestrogen compounds” (STEVENS INSTITUTE OF TECHNOLOGY, priority 2018, dated 2023):
Where a chain is given by its changes, count along the chain named.

Assays:
Experiment in all cases: Luciferase assay, overexpressed ER (3×-ERE-TATA-Luciferase reporter)
Type in all cases: cell-based
[1] = biological target: T1, HA-ERα D538G (Homo sapiens, UniProt P03372, D538G); settings: compound concentration 1 μM, 24 hours
T1 construct: HA; expressed in transfected cells
T1 sequence (P03372 1-595 D538G): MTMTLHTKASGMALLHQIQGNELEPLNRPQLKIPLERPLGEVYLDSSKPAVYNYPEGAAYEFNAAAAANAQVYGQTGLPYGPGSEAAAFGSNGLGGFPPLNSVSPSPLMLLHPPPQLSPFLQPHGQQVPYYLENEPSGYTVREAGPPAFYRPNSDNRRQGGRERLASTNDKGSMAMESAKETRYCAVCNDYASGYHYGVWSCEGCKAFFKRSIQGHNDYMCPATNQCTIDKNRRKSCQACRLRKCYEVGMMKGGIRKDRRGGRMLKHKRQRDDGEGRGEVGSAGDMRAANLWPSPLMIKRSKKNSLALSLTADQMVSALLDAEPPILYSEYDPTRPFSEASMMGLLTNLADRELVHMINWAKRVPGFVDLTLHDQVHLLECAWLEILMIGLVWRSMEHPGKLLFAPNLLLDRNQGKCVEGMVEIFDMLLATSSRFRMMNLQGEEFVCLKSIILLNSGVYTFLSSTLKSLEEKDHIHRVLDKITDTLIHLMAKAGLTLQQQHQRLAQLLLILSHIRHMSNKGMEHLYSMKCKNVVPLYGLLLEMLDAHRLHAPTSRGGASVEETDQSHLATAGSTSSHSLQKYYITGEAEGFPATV
Description: (§1) Luciferase assays were performed to determine the efficacy of the example compounds at inhibiting ER or its mutants' ability to activate transcription of genes.
(§2) Cells were plated at a density of 0.15×10^6 per well of 24 well plates one day prior to transfection. Cells were transfected with 125 ng (per well) of HA-ERα wild type or mutants, 315 ng (per well) of 3×-ERE-TATA-Luciferase reporter and 50 ng (per well) of pRL-TK Renilla Luciferase plasmid, using Xtremegene (Roche). The cells were treated with the various compounds or Fulvestrant at the indicated doses a day after transfection for 24 hours and luciferase activities were determined using the Dual-Luciferase® Reporter Assay System (Promega) according to manufacturer's instructions. Luciferase bioluminescence measurements were performed with the Veritas™ Microplate Luminometer (Promega). All experiments were conducted in triplicate and the Firefly luciferase activity was normalized with the Renilla luciferase activity of each sample.

[2] = biological target: T2, HA-ERα L536R (Homo sapiens, UniProt P03372, L536R); settings: compound concentration 1 μM, 24 hours
T2 construct: HA; expressed in transfected cells
T2 sequence (P03372 1-595 L536R): T1 sequence (P03372 1-595 D538G) with L536R, G538D
Description: as §1, §2

[3] = biological target: T3, HA-ERα Y537S (Homo sapiens, UniProt P03372, Y537S); settings: compound concentration 1 μM, 24 hours
T3 construct: HA; expressed in transfected cells
T3 sequence (P03372 1-595 Y537S): T1 sequence (P03372 1-595 D538G) with Y537S, G538D
Description: as §1, §2

[4] = biological target: T4, HA-ERα wild type (Homo sapiens, UniProt P03372); settings: compound concentration 1 μM, 24 hours; read-out: Overexpressed ER (% Inhibition) WT
T4 construct: HA; expressed in transfected cells
T4 sequence (P03372 1-595): T1 sequence (P03372 1-595 D538G) with G538D
Description: as §1, §2

Row | Structure (SMILES) | inhibition at 1 µM [1] | inhibition at 1 µM [2] | inhibition at 1 µM [3] | inhibition at 1 µM [4]
1 | O=C(COc1cccc2c1C(=O)N(C1CCC(=O)NC1=O)C2=O)NCCCCOc1ccc(C(=C2C3CC4CC(C3)CC2C4)c2ccc(O)cc2)cc1 (stereo not drawn) [Example 15, N-(4-(4-(Adamantan-2-ylidene(4-hydroxyphenyl)methyl)phenoxy)butyl)-2-((2-(2,6-dioxopiperidin-3-yl)-1,3-dioxoisoindolin-4-yl)oxy)acetamide] | 93% | 82% | -51% | 85%
2 | O=C(COc1cccc2c1C(=O)N(C1CCC(=O)NC1=O)C2=O)NCCCCCCOc1ccc(C(=C2C3CC4CC(C3)CC2C4)c2ccc(O)cc2)cc1 (stereo not drawn) [Example 16, N-(6-(4-(Adamantan-2-ylidene(4-hydroxyphenyl)methyl)phenoxy)hexyl)-2-((2-(2,6-dioxopiperidin-3-yl)-1,3-dioxoisoindolin-4-yl)oxy)acetamide] | 61% | 64% | -65% | 81%
3 | O=C1CCC(N2C(=O)c3cccc(OCCOCCOCCOc4ccc(C(=C5C6CC7CC(C6)CC5C7)c5ccc(O)cc5)cc4)c3C2=O)C(=O)N1 (stereo not drawn) [Example 18, 4-(2-(2-(2-(4-(Adamantan-2-ylidene(4-hydroxyphenyl)methyl)phenoxy)-ethoxy)ethoxy)ethoxy)-2-(2,6-dioxopiperidin-3-yl)isoindoline-1,3-dione] | 86% | 84% | -75% | 80%
4 | O=C1CCC(N2C(=O)c3cccc(OCCOCCOc4ccc(C(=C5C6CC7CC(C6)CC5C7)c5ccc(O)cc5)cc4)c3C2=O)C(=O)N1 (stereo not drawn) [Example 19, 4-(2-(2-(4-(Adamantan-2-ylidene(4-hydroxyphenyl)methyl)phenoxy)-ethoxy)ethoxy)-2-(2,6-dioxopiperidin-3-yl)isoindoline-1,3-dione] | 90% | 83% | -136% | 82%
5 | Cc1c(-c2ccc(O)cc2)n(Cc2ccc(OCCCCNC(=O)[C@H]3CC[C@H](C(F)(F)F)CC3)cc2)c2ccc(O)cc12 [Example 20, (trans)-N-(4-(4-((5-Hydroxy-2-(4-hydroxyphenyl)-3-methyl-1H-indol-1-yl)methyl)phenoxy)butyl)-4-(trifluoromethyl)cyclohexanecarboxamide] |  |  |  | 83%
6 | Cc1c(-c2ccc(O)cc2)n(Cc2ccc(OCCCCNC(=O)C34CC5CC(CC(C5)C3)C4)cc2)c2ccc(O)cc12 [Example 21, N-(4-(4-((5-Hydroxy-2-(4-hydroxyphenyl)-3-methyl-1H-indol-1-yl)methyl)phenoxy)butyl)adamantane-1-carboxamide] |  |  |  | 82%
7 | O=C(NCCCCOc1ccc(C2c3ccc(O)cc3CCC2c2ccccc2)cc1)[C@H]1CC[C@H](C(F)(F)F)CC1 (stereo partly drawn) [Example 22, (trans)-N-(4-(4-(6-Hydroxy-2-phenyl-1,2,3,4-tetrahydronaphthalen-1-yl)phenoxy)butyl)-4-(trifluoromethyl)cyclohexanecarboxamide] |  |  |  | -130%
8 | O=C(NCCCCOc1ccc(C(=C2CCCCC2)c2ccc(O)cc2)cc1)C1CCCCC1 [Example 23, N-(4-(4-(Cyclohexylidene(4-hydroxyphenyl)methyl)phenoxy)butyl)-cyclohexanecarboxamide] | 0% | 43% | -169% | -25%
9 | O=C(NCCCCOc1ccc(C(=C2CCCCC2)c2ccc(O)cc2)cc1)C1CCC1 [Example 24, N-(4-(4-(Cyclohexylidene(4-hydroxyphenyl)methyl)phenoxy)-butyl)cyclobutanecarboxamide] | -7% | -75% | -160% | -83%

Next, values leading:

Row | inhibition at 1 µM [1] | inhibition at 1 µM [2] | inhibition at 1 µM [3] | inhibition at 1 µM [4] | Structure (SMILES)
10 | 42% | 36% | -39% | 77% | O=C(NCCCCOc1ccc(C(=C2CCCCC2)c2ccc(O)cc2)cc1)[C@H]1CC[C@H](C(F)(F)F)CC1 [Example 25, (trans)-N-(4-(4-(Cyclohexylidene(4-hydroxyphenyl)methyl)phenoxy)butyl)-4-(trifluoromethyl)cyclohexanecarboxamide]
11 |  |  |  | 61% | O=C(CCC1CCCCC1)NCCCCOc1ccc(Oc2c(-c3ccc(O)cc3)sc3cc(O)ccc23)cc1 [Example 30, 3-Cyclohexyl-N-(4-(4-((6-hydroxy-2-(4-hydroxyphenyl)benzo[b]thiophen-3-yl)oxy)phenoxy)butyl)propanamide]
12 |  |  |  | 36% | O=C(NCCCCOc1ccc(C(=C2C3CC4CC(C3)CC2C4)c2ccc(O)cc2)cc1)C1CC1 [Example 31, N-(4-(4-(Adamantan-2-ylidene(4-hydroxyphenyl)methyl)phenoxy)butyl)cyclopropanecarboxamide]
13 |  |  |  | 48% | O=C(NCCCCOc1ccc(C(=C2C3CC4CC(C3)CC2C4)c2ccc(O)cc2)cc1)C1CC1(F)F (stereo not drawn) [Example 32, N-(4-(4-(Adamantan-2-ylidene(4-hydroxyphenyl)methyl)phenoxy)butyl)-2,2-difluorocyclopropanecarboxamide]
14 |  |  |  | 79% | O=C(NCCCCOc1ccc(C(=C2C3CC4CC(C3)CC2C4)c2ccc(O)cc2)cc1)c1ccc(C(F)(F)F)cc1 [Example 33, N-(4-(4-(Adamantan-2-ylidene(4-hydroxyphenyl)methyl)phenoxy)butyl)-4-(trifluoromethyl)benzamide]
15 |  |  |  | 65% | O=C(CCC1CCCCC1)NCCCCOc1ccc(C(=C2C3CC4CC(C3)CC2C4)c2ccc(O)cc2)cc1 [Example 34, N-(4-(4-(Adamantan-2-ylidene(4-hydroxyphenyl)methyl)phenoxy)butyl)-3-cyclohexylpropanamide]
